For one data set, the system named is OV-CD20 tumor cells. The experiment in a line: AICC by human primary NK cells. The format is cell-based. Particulars: absence of antibody, vs vehicle. As to the method: (§1) Briefly, 5,000 human breast carcinoma (SKBR3 or OE19) or OV-CD20 target cells were plated in black 96-well microplates in R7.5 media for 48 hours. Wells were washed and 50,000 PBMC, NK or SPL effector cells were added in R1 assay media with or without a targeting test antibody and 25 or 50 μM of Compound 2. Vehicle is the solvent that Compound 2 is dissolved in. For assays employing SKBR3 human breast cancer or OE19 esophageal adenocarcinoma cell lines, 2.5 μg/mL of the HER2-targeting trastuzumab test antibody was used for ADCC assays. For OV-CD20 assays, 2.5 μg/mL of the CD20-targeting rituximab test antibody was used for ADCC assays. Cultures were incubated for 24 hours at 37° C. in 5% CO2 in triplicate. After incubation, culture supernatants were harvested for cytokine analysis and wells were washed with phosphate buffered saline and adhered target cell viability was quantified via Cell Titer-GLO (Promega) using a Varioskan plate reader. […] ADCC data was graphed as percent killing of antibody treated with Compound 2 or vehicle vs. cultures not treated with antibody. […] AICC results were graphed as percent killing by Compound 2 vs vehicle only treated cultures. […] Experiments represent a minimum of triplicate wells.

A short description of data set [1]: Metabolic stability in human liver microsomes. Particulars: human, microsomes. The format is in vitro ADME. As to the method:
(§2) We next tested Compounds 2, 26, 27 and 33 for metabolic stability using human and mouse microsomes. For each test compound, samples were diluted a final concentration of 2 μg/mL in 25 mM potassium phosphate buffer with liver microsomes of each species at a final concentration of 0.5 mg/mL. The enzyme reaction was initiated by the addition of NADPH reagent at a final concentration of 1 mM. For negative control samples, NADPH reagent was not added. Samples were incubated at 37° C. on a 50-RPM orbital shaker, and an aliquot was removed at pre-determined timepoints at 0, 5, 10, 15, 30, and 60 minutes. Samples were then precipitated with three volume of acetonitrile containing propranolol as an internal standard, and centrifuged for 10 min at 2000 g then analyzed by LC/MS/MS. Note that compounds undergo only Phase I metabolism in liver microsomes in the presence of NADPH cofactors. Data interpretation of results are based on percent parent compound remaining relative to 0-minute incubation samples, from which the elimination half-life is calculated based on the natural log of % compound remaining vs. time plot. The following parameters were calculated to estimate the compound's in vitro metabolic stability: Cmp=concentration of microsomal proteins (mg/mL); t1/2=the half-life (min), where t1/2 is equal to 0.693/slope; CLint=the intrinsic hepatic clearance (μL/min/mg), where CLint is equal to 0.693/(t1/2×Cmp).

Data set [2] relates to CD16a FcR. Nature of the data set: Cytokine and granzyme ELISA on supernatants of primary human effector cells. The format is cell-based. The protocol:
as §1

Data set [3] is described as follows: Tolerability and serum TNFα in athymic nude mice, i.v. dosing. The format is in vivo. As to the method: To determine the ability of Compound 2 to activate immune-effector cells in vivo, we administered 7 mg/kg of Compound 2 or similar volumes of vehicle (ethanol) daily for 5 days (day 1-5) and isolated total serum on day 11 to measure for immune-effector cell activation markers. […] Experiments represent a minimum of triplicate wells.

Another data set relates to tumor target cells. The experiment in a line: ADCC and cytokine production by mouse splenocyte (SPL) effector cells. The format is cell-based. Particulars: 25 or 50 μM plus targeting antibody, 24 hours; vs antibody alone (vehicle). The protocol: as §1
For another data set, the system named is SARS-COV-2 virus. Nature of the data set: Viability of human PBMCs exposed to SARS-COV-2 virus. It counts as cell-based. Conditions: Severe acute respiratory syndrome coronavirus 2, PBMC, 72 h, read-out: PBMC viability after SARS-COV-2 exposure. An excerpt:
NK cells have been previously reported to be capable of killing virally infected cells (Bjorkstrom N K, et al. Nat Reviews Immunol 22:112-123, 2022). In particular, previous studies have shown that the SARS-COV-2 virus can infect human PBMCs and this infection can be lethal to overall PBMC survival (Manunta MDI, et al. Scientific Reports 11:4904-4916, 2021). To test the ability of CD16a FcR activating small molecular weight agents described here to activate effector cells within PBMCs that in turn can kill virally infected PBMC sib cells and reduce viral load, Compound 2 was tested against human PBMCs exposed to SARS-COV-2 virus. Briefly, IL2-activated PBMCs grown in RPMI media with 10% heat inactivated FBS (R10) were plated at 100,000 cells/well in 96 well U-bottom microplates. Next, […] viral titers (previously determined by plaque forming units, PFU) were added to appropriate wells with or without 25 μM of Compound 2. Cultures were incubated for 72 hours at 37° C. in 5% CO2. Plates were centrifuged and supernatants collected for future cytokine and viral titer analysis. Cells were resuspended in RPMI plus 10% FBS, transferred to 96-well black microplates and tested for viability using Cell Titer-Glo (Promega) and read for viability on a 96-well microplate reader. […] Experiments represent a minimum of triplicate wells.

The next data set concerns the target T1, CD16a-158F FcR (Homo sapiens, UniProt P08637).
T1 construct: host or cells: Jurkat (JKT-CD16a luciferase reporter line)
The experiment in a line: Jurkat-CD16a-158F-luciferase (JKT-CD16a) reporter bioassay. It counts as cell-based.

A short description of data set [4]: Metabolic stability in mouse liver microsomes. It counts as in vitro ADME. Conditions: mouse, microsomes. As to the method:
as §2

Data set [5] concerns CD16a FcR. Nature of the data set: Cytokine ELISA on culture media of JKT-CD16a and parental Jurkat cells. Particulars: 10 μM, 18 hours, ELISA of supernatant. It counts as cell-based, human. For orientation: An ELISA detects its analyte on a solid surface through an enzyme-linked reagent.
Data set [6] concerns SKBR3, OE19 or OV-CD20 target cells. Nature of the data set: ADCC by human PBMC and NK effector cells against tumor target cells. It counts as cell-based. Particulars: 25 or 50 μM plus 2.5 μg/mL trastuzumab or rituximab, 24 hours; vs antibody alone (vehicle). As to the method:
as §1

Some results are limits rather than exact numbers.

T1 sequence (P08637 17-254): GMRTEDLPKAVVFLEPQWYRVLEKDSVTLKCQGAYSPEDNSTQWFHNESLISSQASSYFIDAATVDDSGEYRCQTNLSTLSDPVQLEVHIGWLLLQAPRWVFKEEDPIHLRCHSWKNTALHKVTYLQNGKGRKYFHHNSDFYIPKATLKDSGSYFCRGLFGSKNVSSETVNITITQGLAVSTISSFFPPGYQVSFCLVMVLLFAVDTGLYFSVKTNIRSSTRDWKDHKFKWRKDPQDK
T1 sequence (P20963 22-164 partner): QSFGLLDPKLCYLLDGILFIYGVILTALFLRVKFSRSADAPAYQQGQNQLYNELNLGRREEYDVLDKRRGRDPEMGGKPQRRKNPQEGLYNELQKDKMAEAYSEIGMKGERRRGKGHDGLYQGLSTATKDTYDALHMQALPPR

By half-life is commonly meant the time needed for the level to fall by half in the phase considered. Read a high half-life as slow loss. One may read the microsomal CLint as the rate of metabolic loss divided by the concentration. Usually viability stands for the share of living cells, or the viability signal relative to a control. For `CC(C)=CCC[C@@H](C)[C@H]1CC[C@@]2(C)C3CC[C@H]4C(C)(C)[C@@H](O)CC[C@@]45C[C@@]35CC[C@]12C` (some centres unmarked) [Compound 2], in the data set on OV-CD20 tumor cells, the “NK cell killing of OV-CD20 tumor cells via AICC” value is given as “enabled NK cell killing of OV-CD20 tumor cells”. Further, in data set [1], the half-life at 2 μg/mL worked out at 70.5 min and the microsomal CLint at 2 μg/mL is 19.7 µL/min/mg. Besides, in the data set with CD16a FcR [2] (absence of antibody, ELISA of supernatants), the “TNFα, IFNγ, GM-CSF and granzyme B production by NK cells” value is “produced and secreted”. Besides, the “time of exposure to activation and cytokine production” value in the data set with CD16a FcR [2] (time course analysis) was no more than 30 min. Further, the “serum TNFα” value in data set [3] (7 mg/kg i.v. daily day 1-5, serum on day 11, ELISA, vehicle cohort 11 μg/mL) worked out at 298 µg/mL. Further, the “tolerability by lack of body weight loss” value in data set [3] (7 mg/kg i.v. daily for 5 days, athymic nude mice) was “well tolerated”. For the same molecule, the “tolerable dose, daily i.v. dosing” value in data set [3] (athymic nude mice) was “at least 7 mg/kg”. Further, the “mouse (SPL cells) effector cell killing of target cells through ADCC” value with tumor target cells is “enhance”. In the data set on SARS-COV-2 virus, the viability at 25 µM stood at 100%. In addition, on CD16a-158F FcR (OV-CD20 target cells plus 2.5 μg/mL rituximab, 12-18 hours, vs vehicle or no compound), the “JKT-CD16a activation (luciferase RLU) in the presence of IgG” value was “significant enhancement”. Besides, on CD16a-158F FcR (OV-CD20 target cells without antibody, lower levels than with IgG), the “JKT-CD16a-158F FcR activation (luciferase RLU) in the absence of IgG antibody” value is listed as “stimulated”. In [4], this molecule returned a half-life at 2 μg/mL of 113 min and a microsomal CLint at 2 μg/mL of 12.3 µL/min/mg. Besides, in the data set on CD16a FcR [5], the “IFNγ and TNFα production by JKT-CD16a-158F cells” value is recorded as “both cytokines were produced”; the “IFNγ and TNFα production by parental Jurkat cells (CD16a-null)” value is recorded as “little to no cytokine production”. In data set [6], the “human (PBMC and NK cells) effector cell killing of target cells through ADCC” value is reported as “enhance”.

These data come from patent US20260256811A1, “Humoral Immune Activators for the Treatment of Humoral Immunosuppressed Pathologies, Cancer and Infectious Disease and Humoral Immune Suppressors for the Treatment of Inflammatory Diseases” (Navrogen, Inc., priority 2022, published 2026).
